Laboratory results taken from ChEMBL document CHEMBL5247588, “Design and characterization of PROTAC degraders specific to protein N-terminal methyltransferase 1” (Eur J Med Chem, 2022).
Activity calls are given as the source filed them. The rule behind the calls is not given here.

Experiments:
[1] = target: T1, N-terminal Xaa-Pro-Lys N-methyltransferase 1 (Homo sapiens, UniProt Q9BV86); assay: Inhibition of NTMT1 (unknown origin) using SPKRIAKRRS(CONH2) peptide as substrate assessed as SAH production incubated for 10 mins in the presence of SAM by HPLC analysis
T1 sequence (Q9BV86 whole entry): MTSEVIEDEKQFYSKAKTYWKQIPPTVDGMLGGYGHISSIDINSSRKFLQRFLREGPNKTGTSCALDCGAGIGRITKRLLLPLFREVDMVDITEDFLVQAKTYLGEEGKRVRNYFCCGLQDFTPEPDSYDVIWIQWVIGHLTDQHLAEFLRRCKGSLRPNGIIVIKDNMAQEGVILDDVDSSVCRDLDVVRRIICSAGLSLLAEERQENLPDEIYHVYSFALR

[2] = target: T2, N-terminal Xaa-Pro-Lys N-methyltransferase 1 (Homo sapiens) (UniProt Q9BV86); assay: Potency index, ratio of DC541 IC50 to test compound IC50 for inhibition of NTMT1 (unknown origin) using SPKRIAKRRS(CONH2) peptide as substrate assessed as SAH production incubated for 10 mins in the presence of SAM by HPLC analysis
T2 sequence (whole entry): T1 sequence (Q9BV86 whole entry)

[3] = target: T3, von Hippel-Lindau disease tumor suppressor/N-terminal Xaa-Pro-Lys N-methyltransferase 1 (Homo sapiens) (UniProt P40337+Q9BV86); assay: PROTAC activity at VHL/NTMT1 in human HCT-116 cells assessed as reduction in NTMT1 protein level at 50 uM incubated for 24 hrs by Western blot analysis; type: cell-based
[4] = target: T3, von Hippel-Lindau disease tumor suppressor/N-terminal Xaa-Pro-Lys N-methyltransferase 1 (Homo sapiens); assay: PROTAC activity at VHL/NTMT1 in human HT-29 cells assessed as reduction in NTMT1 protein level at 50 uM incubated for 24 hrs by Western blot analysis; type: cell-based
HCT-116 [5] = assay: Cytotoxicity against human HCT-116 cells assessed as reduction in cell viability at 1 to 64 uM incubated for 24 hrs by WST-8 assay; type: toxicity, cell-based; conditions: hct-116, 24 h, dose 1-64 µM
HT-29 = assay: Cytotoxicity against human HT-29 cells assessed as reduction in cell viability at 1 to 64 uM measured after 24 hrs by WST-8 assay; type: toxicity, cell-based; conditions: ht-29, 24 h, dose 1-64 µM
HCT-116 [6] = assay: Antiproliferative activity against human HCT-116 cells assessed as reduction in cell proliferation incubated for 72 hrs by fluorescence based microplate reader analysis; type: functional; conditions: dose 1-64 µM
HCT-116 [7] = assay: Antiproliferative activity against human HCT-116 cells assessed as inhibition of cell proliferation at 1 to 64 uM incubated for 72 hrs by fluorescence based microplate reader analysis relative to control; type: functional; conditions: dose 1-64 µM
HCT-116 [8] = assay: Antiproliferative activity against NTMT1 knockout human HCT-116 cells at 1 to 64 uM incubated for 72 hrs by fluorescence based microplate reader analysis; type: functional, cell-based; conditions: dose 1-64 µM
HCT-116 [9] = assay: Antiproliferative activity against human HCT-116 cells assessed as reduction in tumor spheroid growth at 64 uM measured after 12 days by imaging analysis relative to control; type: functional; design: scale not given: the % may be the effect or the level left; conditions: time 12 day
HCT-116 [10] = assay: Antiproliferative activity against human HCT-116 cells cultured in PG-S assessed as decrease in cell number at 64 uM measured after 3 days by AO/PI staining based cell counter analysis relative to control; type: functional; design: scale not given: the % may be the effect or the level left; conditions: time 3 day
[11] = Upregulation of CALR in human HCT-116 cells assessed as fold change at 25 uM incubated for 24 hrs by Western blot analysis relative to control; type: functional
[12] = target: T3, von Hippel-Lindau disease tumor suppressor/N-terminal Xaa-Pro-Lys N-methyltransferase 1 (Homo sapiens); assay: PROTAC activity at VHL/NTMT1 in human HCT-116 cells assessed as reduction in NTMT1 protein level incubated for 24 hrs by Western blot analysis; type: cell-based
[13] = target: T3, von Hippel-Lindau disease tumor suppressor/N-terminal Xaa-Pro-Lys N-methyltransferase 1 (Homo sapiens); assay: PROTAC activity at VHL/NTMT1 in human HT-29 cells assessed as reduction in NTMT1 protein level incubated for 24 hrs by Western blot analysis; type: cell-based
[14] = target: T3, von Hippel-Lindau disease tumor suppressor/N-terminal Xaa-Pro-Lys N-methyltransferase 1 (Homo sapiens); assay: PROTAC activity at VHL/NTMT1 in human HCT-116 cells assessed as reduction in NTMT1 protein level by measuring maximal efficacy at 0.1 to 50 uM incubated for 24 hrs by Western blot analysis relative to control; type: cell-based; conditions: dose 0.1-50 µM
[15] = target: T3, von Hippel-Lindau disease tumor suppressor/N-terminal Xaa-Pro-Lys N-methyltransferase 1 (Homo sapiens); assay: PROTAC activity at VHL/NTMT1 in human HT-29 cells assessed as reduction in NTMT1 protein level by measuring maximal efficacy at 0.1 to 50 uM incubated for 24 hrs by Western blot analysis relative to control; type: cell-based; conditions: dose 0.1-50 µM
[16] = target: T3, von Hippel-Lindau disease tumor suppressor/N-terminal Xaa-Pro-Lys N-methyltransferase 1 (Homo sapiens); assay: PROTAC activity at VHL/NTMT1 in human HCT-116 cells assessed as reduction in NTMT1 protein level at 50 uM preincubated with MG132 for 2 hrs followed by compound addition and measured after 24 hrs by Western blot analysis; type: cell-based
[17] = target: T3, von Hippel-Lindau disease tumor suppressor/N-terminal Xaa-Pro-Lys N-methyltransferase 1 (Homo sapiens); assay: PROTAC activity at VHL/NTMT1 in human HCT-116 cells assessed as reduction in NTMT1 protein level at 50 uM preincubated with MLN4924 for 2 hrs followed by compound addition and measured after 24 hrs by Western blot analysis; type: cell-based
[18] = target: T3, von Hippel-Lindau disease tumor suppressor/N-terminal Xaa-Pro-Lys N-methyltransferase 1 (Homo sapiens); assay: PROTAC activity at VHL/NTMT1 in human HCT-116 cells co-expressing eGFP fusion protein assessed as reduction in NTMT1 protein level by measuring reduction in eGFP fluorescence at 100 uM incubated for 24 hrs by fluorescence microscopic analysis; type: cell-based
[19] = target: T3, von Hippel-Lindau disease tumor suppressor/N-terminal Xaa-Pro-Lys N-methyltransferase 1 (Homo sapiens); assay: PROTAC activity at VHL/NTMT1 in human HCT-116 cells assessed as reduction in NTMT1 protein level by measuring maximal efficacy at 50 uM measured at 3 hrs by Western blot analysis relative to control; type: cell-based
[20] = target: T3, von Hippel-Lindau disease tumor suppressor/N-terminal Xaa-Pro-Lys N-methyltransferase 1 (Homo sapiens); assay: PROTAC activity at VHL/NTMT1 in human HT-29 cells assessed as reduction in NTMT1 protein level at 50 uM measured upto 6 hrs by Western blot analysis; type: cell-based
[21] = target: T3, von Hippel-Lindau disease tumor suppressor/N-terminal Xaa-Pro-Lys N-methyltransferase 1 (Homo sapiens); assay: PROTAC activity at VHL/NTMT1 in human HT-29 cells assessed as reduction in NTMT1 protein level by measuring maximal efficacy at 50 uM measured after 24 hrs by Western blot analysis relative to control; type: cell-based
[22] = target: T3, von Hippel-Lindau disease tumor suppressor/N-terminal Xaa-Pro-Lys N-methyltransferase 1 (Homo sapiens); assay: PROTAC activity at VHL/NTMT1 in human HT-29 cells assessed as reduction in NTMT1 protein level at 50 uM preincubated with compound for 24 hrs followed by compound washout and measured after 20 hrs by Western blot analysis; type: cell-based
[23] = target: T3, von Hippel-Lindau disease tumor suppressor/N-terminal Xaa-Pro-Lys N-methyltransferase 1 (Homo sapiens); assay: PROTAC activity at VHL/NTMT1 in human HCT-116 cells assessed as reduction in NTMT1 protein level at 50 uM preincubated with compound for 24 hrs followed by compound washout and measured after 20 hrs by Western blot analysis; type: cell-based
[24] = target: T4, von Hippel-Lindau disease tumor suppressor/N-terminal Xaa-Pro-Lys N-methyltransferase 2 (Homo sapiens) (UniProt P40337+Q5VVY1); assay: PROTAC activity at VHL/NTMT2 in human HCT-116 cells assessed as reduction in NTMT2 protein level at 5 to 50 uM incubated for 24 hrs by Western blot analysis; type: cell-based; conditions: dose 5-50 µM
[25] = target: T4, von Hippel-Lindau disease tumor suppressor/N-terminal Xaa-Pro-Lys N-methyltransferase 2 (Homo sapiens); assay: PROTAC activity at VHL/NTMT2 in human HT-29 cells assessed as reduction in NTMT2 protein level at 5 to 50 uM incubated for 24 hrs by Western blot analysis; type: cell-based; conditions: dose 5-50 µM
HCT-116 [26] = assay: Antiproliferative activity against human HCT-116 cells cultured in PG-S assessed as decrease in cell number measured after 3 days by AO/PI staining based cell counter analysis; type: functional; conditions: time 3.0 day
HCT-116 [27] = assay: Antiproliferative activity against human HCT-116 cells cultured in PG-S assessed as viable cells upto 64 uM measured after 3 days by AO/PI staining based cell counter analysis relative to control; type: functional; conditions: time 3 day, up to 64 µM
HCT-116 [28] = assay: Induction of cell cycle arrest in human HCT-116 cells assessed as accumulation of cells at G0/G1 phase incubated for 3 days by PI staining based flow cytometric analysis; type: functional; conditions: time 3.0 day
HCT-116 [29] = assay: Induction of cell cycle arrest in human HCT-116 cells assessed as G0/G1 phase cells at 64 uM incubated for 3 days by PI staining based flow cytometric analysis (reference value: 65%); type: functional; conditions: time 3 day
HCT-116 [30] = assay: Induction of cell cycle arrest in human HCT-116 cells assessed as decrease in S phase cells at 64 uM incubated for 3 days by PI staining based flow cytometric analysis; type: functional; conditions: time 3.0 day
HCT-116 [31] = assay: Downregulation of NTMT1 in human HCT-116 cells at 25 uM incubated for 24 hrs by LC-MS based proteomic analysis; type: functional, cell-based
HCT-116 [32] = assay: Upregulation of CALR in human HCT-116 cells at 25 uM incubated for 24 hrs by LC-MS based proteomic analysis; type: functional, cell-based
HCT-116 [33] = assay: Downregulation of NTMT1 in human HCT-116 cells at 25 uM incubated for 24 hrs by Western-blot analysis; type: functional, cell-based

T3 sequence (P40337 whole entry, looked up, one chain of several): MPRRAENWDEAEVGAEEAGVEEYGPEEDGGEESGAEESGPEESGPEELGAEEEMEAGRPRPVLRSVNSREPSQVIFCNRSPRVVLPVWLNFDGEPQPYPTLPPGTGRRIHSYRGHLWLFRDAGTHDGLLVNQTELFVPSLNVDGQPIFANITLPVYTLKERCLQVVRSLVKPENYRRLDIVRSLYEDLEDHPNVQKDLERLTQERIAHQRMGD
T4 sequence (P40337 whole entry, looked up): as the sequence (P40337 whole entry, looked up, one chain of several) above
T4 sequence (Q5VVY1 whole entry, looked up): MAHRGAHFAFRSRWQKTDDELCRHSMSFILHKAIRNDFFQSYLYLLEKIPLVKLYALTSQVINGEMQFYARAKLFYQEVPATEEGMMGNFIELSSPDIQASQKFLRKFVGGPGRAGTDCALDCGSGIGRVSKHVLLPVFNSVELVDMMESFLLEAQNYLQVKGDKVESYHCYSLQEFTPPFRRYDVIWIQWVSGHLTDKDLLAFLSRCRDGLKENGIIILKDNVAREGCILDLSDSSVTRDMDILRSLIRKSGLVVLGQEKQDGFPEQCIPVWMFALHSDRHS

Structure (SMILES)	IC50 [1] [µM]	Ratio IC50 [2]	Activity [3]	Activity (HCT-116 [5])	Activity (HT-29)	Activity (HCT-116 [6])	inhibition (INH) (HCT-116 [7]) [%]	Activity (HCT-116 [8])	Activity (HCT-116 [9]) [%]	Activity (HCT-116 [10]) [%]	fold change (FC) [11]	Activity [12]	Activity [13]	other results
NCCCC[C@H](NC(=O)[C@@H]1CCCN1C(=O)Cc1cccc2ccccc12)C(=O)Nc1ccccc1C(N)=O	4.38	–	–	–	–	–	–	–	–	–	–	–	–	–
NCCCC[C@H](NC(=O)[C@@H]1CCCN1C(=O)Cc1cccc2ccccc12)C(=O)Nc1ccccc1C(=O)O	9.18	–	–	–	–	–	–	–	–	–	–	–	–	–
Cc1ncsc1-c1ccc(CNC(=O)[C@@H]2C[C@H](O)CN2C(=O)[C@H](C(C)C)N2Cc3ccccc3C2=O)c(OCCNC(=O)c2ccccc2NC(=O)[C@H](CCCCN)NC(=O)[C@@H]2CCCN2C(=O)Cc2cccc3ccccc23)c1	2.42	2	inactive	Non-Toxic	Non-Toxic	Active	22	inactive	32	78	1.1	–	–	Activity [4]: inactive
Cc1ncsc1-c1ccc(CNC(=O)[C@@H]2C[C@@H](O)CN2C(=O)[C@H](C(C)C)N2Cc3ccccc3C2=O)c(OCCOCCNC(=O)c2ccccc2NC(=O)[C@H](CCCCN)NC(=O)[C@@H]2CCCN2C(=O)Cc2cccc3ccccc23)c1	2	2	–	–	–	–	–	–	–	–	–	Dose-Dependent Effect	Dose-Dependent Effect	–
Cc1ncsc1-c1ccc(CNC(=O)[C@@H]2C[C@@H](O)CN2C(=O)[C@H](C(C)C)N2Cc3ccccc3C2=O)c(OCCOCCOCCOCCNC(=O)c2ccccc2NC(=O)[C@H](CCCCN)NC(=O)[C@@H]2CCCN2C(=O)Cc2cccc3ccccc23)c1	2	2	–	–	–	–	–	–	–	–	–	Dose-Dependent Effect	Dose-Dependent Effect	–
Cc1ncsc1-c1ccc(CNC(=O)[C@@H]2C[C@@H](O)CN2C(=O)[C@H](C(C)C)N2Cc3ccccc3C2=O)c(OCCNC(=O)c2ccccc2NC(=O)[C@H](CCCCN)NC(=O)[C@@H]2CCCN2C(=O)Cc2cccc3ccccc23)c1	1.77	2	Active	Non-Toxic	Non-Toxic	Active	47	inactive	62	68	1.5	Dose-Dependent Effect	Dose-Dependent Effect	Emax [14]: > 90%; Emax [15]: > 90%; Activity [16]: inactive; Activity [17]: inactive; Activity [18]: Active; Emax [19]: > 60%; Activity [20]: inactive; Emax [21]: > 90%; Activity [22]: inactive; Activity [23]: inactive; Activity [24]: inactive; Activity [25]: inactive; Activity (HCT-116 [26]): Dose-Dependent Effect; Activity (HCT-116 [27]): >92%; Activity (HCT-116 [28]): Dose-Dependent Effect; Activity (HCT-116 [29]): 71%; Activity (HCT-116 [30]): Active; Activity (HCT-116 [31]): Active; Activity (HCT-116 [32]): Active; Activity (HCT-116 [33]): Active
